The source made the active and inactive calls. No cut-off for these calls is given here.
target: T1, Glycogen phosphorylase, muscle form (Oryctolagus cuniculus) (UniProt P00489); assay: Inhibition of rabbit muscle glycogen phosphorylase b at 625 uM
T1 sequence (whole entry): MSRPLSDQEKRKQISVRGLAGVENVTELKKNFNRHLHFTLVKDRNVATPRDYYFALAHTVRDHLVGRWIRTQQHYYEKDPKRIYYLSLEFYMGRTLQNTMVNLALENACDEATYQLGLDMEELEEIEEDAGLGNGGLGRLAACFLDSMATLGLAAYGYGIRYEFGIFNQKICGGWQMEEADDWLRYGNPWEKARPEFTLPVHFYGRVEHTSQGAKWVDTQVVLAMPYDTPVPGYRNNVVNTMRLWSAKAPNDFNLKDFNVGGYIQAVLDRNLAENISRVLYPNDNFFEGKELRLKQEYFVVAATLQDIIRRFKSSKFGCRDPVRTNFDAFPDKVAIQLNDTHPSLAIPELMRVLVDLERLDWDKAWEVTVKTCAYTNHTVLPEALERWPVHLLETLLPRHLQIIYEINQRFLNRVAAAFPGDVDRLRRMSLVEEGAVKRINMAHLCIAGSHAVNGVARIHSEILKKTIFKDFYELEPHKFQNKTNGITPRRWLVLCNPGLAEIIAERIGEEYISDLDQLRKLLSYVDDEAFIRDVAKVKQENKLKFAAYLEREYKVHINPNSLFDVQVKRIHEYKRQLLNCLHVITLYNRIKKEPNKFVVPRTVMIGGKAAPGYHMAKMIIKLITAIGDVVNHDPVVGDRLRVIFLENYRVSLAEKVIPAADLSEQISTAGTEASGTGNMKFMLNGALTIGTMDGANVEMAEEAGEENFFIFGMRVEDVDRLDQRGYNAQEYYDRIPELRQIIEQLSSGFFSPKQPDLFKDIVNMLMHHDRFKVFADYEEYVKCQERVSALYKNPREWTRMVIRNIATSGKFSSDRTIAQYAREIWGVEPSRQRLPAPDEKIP

Row | Compound | inhibition
1 | OC[C@H]1O[C@@H](c2nnc(-c3cccc4ccccc34)o2)[C@H](O)[C@@H](O)[C@@H]1O | 10%
2 | O=[N+]([O-])c1ccc(-c2nc([C@@H]3O[C@H](CO)[C@@H](O)[C@H](O)[C@H]3O)no2)cc1 | inactive
3 | OC[C@H]1O[C@@H](c2noc(-c3cccc4ccccc34)n2)[C@H](O)[C@@H](O)[C@@H]1O | inactive

Results, then the compound that gave them:

Row | inhibition | Compound
4 | inactive | O=[N+]([O-])c1ccc(-c2nnc([C@@H]3O[C@H](CO)[C@@H](O)[C@H](O)[C@H]3O)o2)cc1
5 | 10% | OC[C@H]1O[C@@H](c2noc(-c3ccccc3)n2)[C@H](O)[C@@H](O)[C@@H]1O
6 | inactive | OC[C@H]1O[C@@H](c2nnc(-c3ccc(O)cc3)o2)[C@H](O)[C@@H](O)[C@@H]1O
7 | 20% | Nc1ccc(-c2noc([C@@H]3O[C@H](CO)[C@@H](O)[C@H](O)[C@H]3O)n2)cc1
8 | 10% | OC[C@H]1O[C@@H](c2nnc(-c3ccccc3)o2)[C@H](O)[C@@H](O)[C@@H]1O
9 | inactive | Cc1nc([C@@H]2O[C@H](CO)[C@@H](O)[C@H](O)[C@H]2O)no1
10 | inactive | Nc1ccc(-c2nnc([C@@H]3O[C@H](CO)[C@@H](O)[C@H](O)[C@H]3O)o2)cc1
11 | inactive | Cc1ccc(-c2nnc([C@@H]3O[C@H](CO)[C@@H](O)[C@H](O)[C@H]3O)o2)cc1
12 | 10% | OC[C@H]1O[C@@H](c2nnc(-c3ccc4ccccc4c3)o2)[C@H](O)[C@@H](O)[C@@H]1O
13 | inactive | COc1ccc(-c2nnc([C@@H]3O[C@H](CO)[C@@H](O)[C@H](O)[C@H]3O)o2)cc1
14 | inactive | OC[C@H]1O[C@@H](c2nc(-c3ccc(OCc4ccccc4)cc3)no2)[C@H](O)[C@@H](O)[C@@H]1O

target: T2, Glycogen phosphorylase, muscle form (Oryctolagus cuniculus, UniProt P00489)
T2 sequence (P00489 whole entry): T1 sequence (whole entry)

Row | Compound | IC50 | Ki
15 | COc1ccc(-c2nc([C@@H]3O[C@H](CO)[C@@H](O)[C@H](O)[C@H]3O)no2)cc1 | 550 µM | 
16 | COc1ccc(-c2noc([C@@H]3O[C@H](CO)[C@@H](O)[C@H](O)[C@H]3O)n2)cc1 |  | 20.4 µM
17 | OC[C@H]1O[C@@H](c2nc3ccccc3s2)[C@H](O)[C@@H](O)[C@@H]1O |  | 76 µM
18 | OC[C@H]1O[C@@H](c2nc(-c3ccc4ccccc4c3)no2)[C@H](O)[C@@H](O)[C@@H]1O |  | 2.4 µM
19 | OC[C@H]1O[C@@H](c2nc(-c3cccc4ccccc34)no2)[C@H](O)[C@@H](O)[C@@H]1O |  | 19 µM
20 | Cc1ccc(C(=O)NC(=O)N[C@@H]2O[C@H](CO)[C@@H](O)[C@H](O)[C@H]2O)cc1 |  | 2.3 µM
21 | Cc1nnc(C2O[C@H](CO)[C@@H](O)[C@H](O)[C@H]2O)o1 (single isomer, unassigned) |  | 145 µM
22 | OC[C@H]1O[C@@H](c2nc(-c3ccc(O)cc3)no2)[C@H](O)[C@@H](O)[C@@H]1O |  | 19.4 µM
23 | O=C(NC(=O)c1cccc2ccccc12)N[C@@H]1O[C@H](CO)[C@@H](O)[C@H](O)[C@H]1O |  | 15 µM
24 | O=C(NC(=O)c1ccc([N+](=O)[O-])cc1)N[C@@H]1O[C@H](CO)[C@@H](O)[C@H](O)[C@H]1O |  | 3.3 µM
25 | OC[C@H]1O[C@@H](c2noc(-c3ccc4ccccc4c3)n2)[C@H](O)[C@@H](O)[C@@H]1O |  | 38 µM
26 | Nc1ccc(C(=O)NC(=O)N[C@@H]2O[C@H](CO)[C@@H](O)[C@H](O)[C@H]2O)cc1 |  | 6 µM
27 | OC[C@H]1O[C@@H](c2nc(-c3ccccc3)no2)[C@H](O)[C@@H](O)[C@@H]1O |  | 64 µM
28 | Cc1ccc(-c2noc([C@@H]3O[C@H](CO)[C@@H](O)[C@H](O)[C@H]3O)n2)cc1 |  | 8.8 µM
29 | O=C(NC(=O)c1ccc(O)cc1)N[C@@H]1O[C@H](CO)[C@@H](O)[C@H](O)[C@H]1O |  | 6.3 µM

More lines, main results first:

Row | IC50 | Compound | Ki
30 | 650 µM | O=[N+]([O-])c1ccc(-c2noc([C@@H]3O[C@H](CO)[C@@H](O)[C@H](O)[C@H]3O)n2)cc1 | 
31 | 4500 µM | Cc1ccc(C(=O)N[C@@H]2O[C@H](CO)[C@@H](O)[C@H](O)[C@H]2O)cc1 | 
32 | > 625 µM | OC[C@H]1O[C@@H](c2nc(-c3ccc4c(c3)OCO4)no2)[C@H](O)[C@@H](O)[C@@H]1O | 
33 | 350 µM | Cc1ccc(-c2nc([C@@H]3O[C@H](CO)[C@@H](O)[C@H](O)[C@H]3O)no2)cc1 | 

— ChEMBL document CHEMBL1152938, “Synthesis and structure-activity relationships of C-glycosylated oxadiazoles as inhibitors of glycogen phosphorylase” (Bioorg Med Chem, 2009)
